Assay results published in patent US11213527B2, “Inhibitory effect of low molecular weight compound on cancer and fibrosis” (NATIONAL UNIVERSITY CORPORATION TOTTORI UNIVERSITY, priority 2014, dated 2022).

Assays:
unsorted HuH7 cells = assay: Mice transplanted with unsorted HuH7 cells; type: in vivo; details: unsorted HuH7 cells instead of CD44-positive HuH7 cells
Description: The effect of treating malignant tumors may be evaluated by imaging, endoscopic examination, biopsy, or detection of a malignant tumor marker. In addition, the effect of treating cancer stem cells may be evaluated by imaging, endoscopic examination, biopsy, or detection of a cancer stem cell marker. In addition, the effect of treating fibrosis may be evaluated by imaging, endoscopic examination, biopsy, or detection of a fibrosis marker. […] At this time, the level of a marker after administration of a therapeutic drug may be 0.7, 0.5, 0.3, or 0.1 times the level before the administration (or of a control). […] At this time, the number of marker-positive cells after administration of the therapeutic drug may be 0.7, 0.5, 0.3, or 0.1 times the number before the administration (or of a control). Note that in Example 2 below, the therapeutic effect was evaluated by using mice in which CD44-positive HuH7 cells had been subcutaneously transplanted. The present inventors also replaced the above CD44-positive HuH7 cells by unsorted HuH7 cells.

[1] = tested on: squamous cell carcinoma cells (HSC2; HSC3 for IC-2); assay: Anti-tumor effect on squamous cell carcinoma cells (TetraColor ONE); type: cell-based; details: HSC2 (HSC3 also for IC-2); 48 hours
Protocol: HSC2 cells (a squamous cell carcinoma cell line) were cultured in a DMEM on a 10-cm cell culture dish (TPP Techno Plastic Products AG, Trasadingen, Switzerland) at 5% CO2, 37° C., and a humidity of 100%. The cells at 70-90% confluency were to be split and washed with PBS (−). Next, 300 μL of Trypsin/EDTA was added to 2 mL of PBS (−) and the cells were incubated with this solution at 37° C. for 5 min to detach the cells. Then, 5 mL of DMEM was used to recover the cells. The recovered cells were centrifuged at 1000 rpm for 3 min to remove a supernatant. The pelleted cells were suspended in DMEM and subcultured at 1:4.
First, 2.5×10^3 of HSC2 cells were seeded on each well of a 96-well plate (TPP). After 48 hours from the low-molecular-weight compound treatment, 100 μL of 10% TetraColor ONE (SEIKAGAKU CORPORATION, Tokyo, Japan) was added and the mixture was then incubated at 37° C. After that, absorbance (at a measurement wavelength of 450 nm/a control wavelength of 600 nm) was measured by a 96-well microplate reader (TECAN, Zurich, Switzerland). The same procedure was used to investigate an anti-tumor effect of IC-2 on a squamous cell carcinoma cell line HSC3 after culturing.

Wnt/β-catenin signal = assay: Luciferase assay in liver stellate cells (LX-2); type: cell-based, human
Protocol: A human liver stellate cell line (LX-2 cells) was maintained and cultured in a DMEM containing 10% FBS. The cells used for experiments were suspended in a DMEM containing 1% FBS and plated. The cell density was at about 2.0×10^5 cell/cm^2.
A luciferase assay was used to investigate an inhibitory effect of each low-molecular-weight compound on a Wnt/β-catenin signal. The luciferase assay was conducted under conditions indicated in FIG. 40 and the following sections 9.3.1 to 9.3.2. FIG. 40 illustrates a protocol when the cells were treated with a low-molecular-weight compound+TGFβ. Substantially the same experiment was carried out when the cells were treated with a low-molecular-weight compound alone or a low-molecular-weight compound+Wnt3a. Note that TGFβ or Wnt3a was added so as to increase the intensity of a Wnt/β-catenin signal.
First, 5×Passive Lysis Buffer was diluted 5-fold with MilliQ water. The lysis buffer was added at 100 μl/well and the plate was shaken for 20 min. The lysate was frozen at −30° C. overnight.
The sample frozen a day before, LARII, a Stop&Glo buffer, and a Stop&Glo substrate (materials other than the sample were shaded) were incubated at room temperature for about 1 h. A Stop&Glo solution (49 μl of the Stop&Glo buffer and 1 μl of the Stop&Glo substrate) was prepared for the number of the samples+1. Next, 50 μl of the LARII was dispensed into a 3.5-ml tube. Then, 10 μl of the sample was added and the tube was set in a measurement instrument. After completion of the first assay, 50 μl of the Stop&Glo solution was added and the tube was again set in the measurement instrument for another assay.

For `O=C1[C@H](Cc2ccccc2)N2C(=O)CCN(C(=O)NCc3ccccc3)[C@H]2CN1Cc1cccc2ccccc12` [IC-2], the “effect of treating a malignant tumor” value (unsorted HuH7 cells) was “exhibits an effect of treating a malignant tumor”, the “inhibitory effects on proliferation of the squamous cell carcinoma cells” value [1] was “exerted inhibitory effects on proliferation” and the “inhibition of a Wnt/β-catenin signal in the LX-2 cells” value (from here on “inhibition of a Wnt/β-catenin signal”) (Wnt/β-catenin signal; compound alone, 24 hours) was “resulted in inhibition”. For the same compound, the “inhibition of a Wnt/β-catenin signal” value (Wnt/β-catenin signal; compound alone, 48 hours) was “resulted in inhibition”, the “inhibition of a Wnt/β-catenin signal” value (Wnt/β-catenin signal; compound+TGFβ, 24 hours) was “resulted in inhibition” and the “inhibition of a Wnt/β-catenin signal” value (Wnt/β-catenin signal; compound+TGFβ, 48 hours) was “resulted in inhibition”. The “inhibition of a Wnt/β-catenin signal” value (Wnt/β-catenin signal; compound+Wnt3a, 24 hours) was “resulted in inhibition”.
